Calls of active or inactive are those of the source.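 How the source made its calls: active means compounds raising the signal whose fitted half-maximal concentration is at or below their top tested dose (cut at about 25 µM in these data); inconclusive means flat fit at 30 to 70% activity, or a poor fit; inactive means the rest.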 Bounds are passed on as bounds.

For this assay, the system named is INS-1E rat beta cells, no cytokines, CellTiter-Glo ATP, 48 h. Put plainly: cytokine-free beta-cell viability effect – INS-1E rat cells, ATP luminescence, cherry pick, counter-screen for beta-cell apoptosis protection project, dose response (AID 463229).
Turning to `O=C(c1ccc(-c2ccc(Cl)cc2)o1)N1CCN(c2ccc([N+](=O)[O-])cc2Cl)CC1`, the AC50 was 4.92 µM.

Turning to `CCOc1ccc(N=Cc2c(C)[nH]n(-c3nc4ccccc4[nH]3)c2=O)cc1`, the AC50 was 2.83 µM.

In the case of `COc1ccc(-n2cc(-c3ccc(C)cc3)[n+]3c2SCC3)cc1`, the AC50 is 0.924 µM.

With `CC(=O)Nc1sc2c(c1-c1nc3ccccc3s1)CCN(C(C)C)C2`, the AC50 is 5.11 µM.

Take `COc1ccc(C(C(=O)NC2CCCCC2)N(C(=O)CCl)c2cccc(Cl)c2)cc1` (stereo not drawn): the AC50 was 7.03 µM.

For `O=c1c2ccccc2nc(N/N=C/c2c(O)ccc3ccccc23)n1O`, the AC50 was 3.65 µM.

In the case of `CN(C)C(=O)c1ccc(NC(=O)c2cccc(S(=O)(=O)N3CCCCCC3)c2)cc1`, the AC50 is > 26 µM (inactive).

Take `CCN(CC)c1ccc(/C=N/NC(=O)c2ccc3nc[nH]c3c2)c(O)c1`: the AC50 is 2.7 µM.

For the compound `O=c1[nH]c(=O)n(-c2ccc(F)cc2)c2c1C(C(F)(F)F)(C(F)(F)F)N=C(c1ccc(F)cc1)N2`, the AC50 was 6.05 µM.

Consider `O=C(COc1ccc([N+](=O)[O-])cc1)Nc1ccc(C(=O)NCc2cccnc2)cc1`, for which the AC50 is 0.369 µM.

On to `COc1cc(C(=O)N/N=C(\c2ccccc2)c2ccccn2)cc(OC)c1OC`, for which the AC50 is 3.3 µM.

With `Cc1ccc2nc(C)c(CN3CCN(c4ccc([N+](=O)[O-])cc4Cl)CC3)n2c1`, the AC50 is 2.92 µM.

Take `CC(=O)NC(c1ccco1)c1cc(F)c2cccnc2c1O` (stereo not drawn): the AC50 is 10.6 µM.

Take `Oc1cc(-c2ccc(N3CCCCC3)nc2)cc2cccnc12`: the AC50 was 7.31 µM.

Regarding `O=C(/C(=C/c1cccc(Cl)c1)c1nc2ccccc2[nH]1)c1ccccc1`, the AC50 is 4.36 µM.

In the case of `CCn1nc(C)c(CNC(=O)c2ccc(OC3CCN(Cc4ccccn4)CC3)cc2)c1C`, the AC50 is 6.9 µM.

As to `Cc1ccc2c(c1)[nH]c1c(N3CCN(Cc4ccccc4)CC3)ncnc12`, the AC50 is 8.07 µM.

As for `O=C(Nc1cccc(C(F)(F)F)c1)Oc1ccc(Cl)c2cccnc12`, the AC50 was 7.64 µM.

For the compound `CC(C)CN(C(=O)COC(=O)C12CC3CC(CC(C3)C1)C2)c1c(N)n(Cc2ccccc2)c(=O)[nH]c1=O`, the AC50 was 3.89 µM.

`O=C1C(Cl)=C(Nc2ccc3cn[nH]c3c2)C(=O)c2ccccc21`: the AC50 was 4.47 µM.

Take `O=C(Nc1ccc(Cl)cc1)Nc1ccc(N2CCCC2)c(S(=O)(=O)Nc2ccccc2Cl)c1`: the AC50 is 7.12 µM.

Take `CCCCCCCCNc1ncnc2ccccc12`: the AC50 was 0.384 µM.

For `COc1ccc(CNC[C@@H](CCCCN(C)Cc2ccc(OC)cc2)N2C[C@H](c3ccccc3)N(CCc3ccc(Cl)c(Cl)c3)C(=O)C2=O)cc1`, the AC50 is 7.17 µM.

Turning to `Cn1ncc2c(O/N=C(\N)c3ccc(C(C)(C)C)cc3)ncnc21`, the AC50 is 6.59 µM.

For the compound `Cc1cccc(CSC(Nc2ccc(F)cc2)=C(C#N)C#N)c1`, the AC50 is 5.85 µM.

With `COC(=O)C1=C(C)N(Cc2ccccc2)C(=NCc2cccc(C(F)(F)F)c2)N[C@H]1c1cccc(C(F)(F)F)c1`, the AC50 was 7.34 µM.

In the case of `CCN(CC)S(=O)(=O)c1cccc(NC(=O)CNc2cccc(S(=O)(=O)N3CCCC3)c2)c1`, the AC50 was 6.2 µM.

For the compound `CCC1=NN(C(=O)c2ccccc2O)C(O)(c2ccccc2)C1` (stereo not drawn), the AC50 is 15.6 µM.

For `COc1cccc(/C=N/Nc2ncnc(Cl)c2N)c1O`, the AC50 is 4.32 µM.

As to `CCn1c(C)nc2cc(-c3nnc(-c4c(-c5ccccc5)noc4C)o3)ccc21`, the AC50 is 5.18 µM.

As to `O=C(NCc1cccnc1)c1ccc(-c2cc3ccccc3oc2=O)cc1`, the AC50 was 5.35 µM.

`Oc1c(CN2CCN(c3ccccn3)CC2)cc(Cl)c2cccnc12`: the AC50 is 5.4 µM.

On to `O=C(NCC(c1ccco1)N1CCCC1)c1ccc(Cl)c(S(=O)(=O)N2CCc3ccccc32)c1` (stereo not drawn), for which the AC50 was 7.47 µM.

For `CC1CCN(Cc2c(C(=O)N/N=C/c3ccccc3O)nnn2-c2nonc2N)CC1`, the AC50 was 5.67 µM.

For the compound `O=C([O-])c1cc(-c2ccccc2)cc(-c2ccccc2)[n+]1Cc1ccccc1`, the AC50 is 1.98 µM.

`Fc1cc(F)c2nc(Nc3nc4c(F)cccc4s3)sc2c1`: the AC50 was 4.95 µM.

Turning to `O=C(Cc1ccc(Cl)cc1)c1c[nH]c(C(=O)NCc2cccnc2)c1`, the AC50 is 0.665 µM.

Turning to `COc1ccccc1-n1c(=O)oc2ccc(Cl)cc2c1=O`, the concentration at half-maximal activity (AC50) is 11.8 µM.

Regarding `COc1cccc(/C=N/NC(=O)c2[nH]nc3c2CCc2ccccc2-3)c1O`, the half-maximal activity concentration (AC50) is 4.25 µM.

In the case of `Cc1cc(C)cc(OCC(O)CN2CCC(CN3C(=O)c4cccc5cccc(c45)C3=O)CC2)c1` (stereo not drawn), the AC50 was 7.97 µM.

In the case of `O=C(Nc1cccc(NC(=O)c2ccccc2Cl)c1)c1ccc([N+](=O)[O-])o1`, the AC50 was 7.58 µM.

For `c1ccc(CSc2ccc(-c3ccccn3)nn2)cc1`, the AC50 was 18.8 µM.

For `COc1ccccc1-[n+]1c(C)cc(/C=C2\Sc3ccccc3N2C)cc1C`, the AC50 was below 0.195 µM.

For `CC1=C(CO)C(=O)OC([C@@H](C)C2CC[C@H]3C4C[C@H]5O[C@]56[C@@H](O)C=CC(=O)[C@]6(C)C4CC[C@]23C)C1` (stereo partly drawn), the AC50 was 6.2 µM.

As to `Cc1c(C(C)C)c(=O)n(-c2ccc(S(=O)(=O)NCc3ccccc3)cc2)n1C`, the AC50 was 3.71 µM.

Take `O=C(NC(c1ccc(Cl)cc1)c1cc(Cl)c2cccnc2c1O)c1cccnc1` (stereo not drawn): the AC50 was 6.6 µM.

On to `CCOC(=O)CC1CCCCN1C(=O)c1cc(COc2cccc3cnccc23)on1` (stereo not drawn), for which the AC50 was 8.19 µM.

As to `COc1ccc(/C=N/Nc2cc(C)nc3ccc(OC)cc23)c(OC)c1`, the AC50 was 13.5 µM.

Take `CNC[C@H](CC1CCCCC1)NC[C@H](Cc1ccccc1)NCCC12CC3CC(CC(C3)C1)C2`: the AC50 is 4.44 µM.

With `Cc1cc(-c2ccccc2)cc(-c2ccccc2)[n+]1CCc1ccccc1`, the AC50 is below 0.195 µM.

`O=C(N/N=C/c1cc(Cl)ccc1O)c1cccnc1`: the AC50 was 8.72 µM.

In the case of `CCOC(=O)c1c(CSc2nc(C)cc(C)c2C#N)n(C)c2cc(Br)c(OC(C)=O)cc12`, the AC50 is 3.73 µM.

On to `O=S(=O)([N-]c1nc2ccccc2nc1-[n+]1ccc(Cc2ccccc2)cc1)c1ccc(Br)s1`, for which the AC50 was 12.9 µM.

Consider `CCCC(=O)NC(c1ccc(OC)c(OC)c1)c1cc(Cl)c2cccnc2c1O` (stereo not drawn), for which the AC50 was 7.47 µM.

Turning to `C/C(=N\NC(=O)c1cc(-c2cccnc2)nc2ccccc12)c1ccc(O)cc1O`, the AC50 is 2.45 µM.

Regarding `Cc1nc2ccccc2c2oc(C(=O)Nc3ccc(C(C)C)cc3)cc12`, the AC50 is 21.6 µM.

Regarding `O=C(Nc1nc(NC(=O)c2ccco2)n(-c2ccccc2)n1)c1ccccc1`, the AC50 is 6.83 µM.

For `CC(=O)c1cccc(NS(=O)(=O)c2ccc(N/C=C\C(=O)c3ccc(F)cc3)cc2)c1`, the AC50 was 4.97 µM.

For the compound `CC(C)(C)c1ccc(CSc2cnn(C(C)(C)C)c(=O)c2Cl)cc1`, the AC50 was below 0.195 µM.

Take `CCOC(=O)c1c(C)[nH]c(C(=O)OCC(=O)NC(C)(C)C)c1C`: the AC50 was 13.1 µM.

For the compound `Oc1cccc(/C=N/Nc2ccc(Cl)nn2)c1O`, the AC50 was 4.69 µM.

For the compound `O=C(NNC(=O)C12CC3CC(CC(C3)C1)C2)c1ccccn1`, the AC50 was 12.7 µM.

Turning to `CCC(C)Sc1cccc(-c2nc3ccc(C)cn3c2NCc2ccccc2)c1` (stereo not drawn), the AC50 was 9.3 µM.

Regarding `COc1ccc(CC(=O)Nc2cccc(S(=O)(=O)N3CCCCCC3)c2)cc1OC`, the AC50 is 10 µM.

For `Cc1cccc(-n2c(C)cc(/C=N/n3cnnc3)c2C)c1`, the AC50 is 14.5 µM.

Regarding `NC(N)=N/N=C/c1cn(-c2ccccc2)nc1-c1cccs1`, the AC50 is 14.2 µM.

Regarding `Nc1ccc2c(c1)C(=O)C(=O)c1ccccc1-2`, the AC50 is 1.2 µM.

Consider `N#CC(C#N)=C1C=CC=CN1/C(=C\c1ccco1)C(=O)c1ccccc1`, for which the AC50 is 13 µM.

As for `Cc1ccc(N=Cc2c(C)[nH]n(-c3nc4ccccc4[nH]3)c2=O)cc1`, the AC50 was 1.85 µM.

With `COc1ccc(O)c(/C=N/NC(=O)c2ccc(OCc3cccc(Br)c3)cc2)c1`, the AC50 is 19.8 µM.

For the compound `OC(c1cc(-c2ccc(C(F)(F)F)cc2)nc(C(F)(F)F)c1)C1CCCCN1` (stereo not drawn), the AC50 is 6.81 µM.

In the case of `CC[N+]1=C(C)C(C)(C)c2cc(C)ccc21`, the AC50 was 8.15 µM.

`Cc1c(C(=O)N(Cc2ccccc2)C(C)C)oc2ccc(S(=O)(=O)N3CCOCC3)cc12`: the AC50 is > 26 µM (inactive).

For `Cc1cc(C(=O)N/N=C/c2cc(N=Nc3ccccc3)ccc2O)n[nH]1`, the AC50 was 3.23 µM.

Take `CN(C)CCCN(C(=O)COc1ccc(Cl)cc1)c1nc2cc3c(cc2s1)OCO3`: the AC50 is 15.6 µM.

Turning to `O=C(Nc1ccc(-c2nc3ccccc3o2)cc1)c1ccc(N2CCOCC2)c([N+](=O)[O-])c1`, the AC50 is 5.65 µM.

Take `COc1ccc(/C(C)=N/NC(=O)c2cccc(S(=O)(=O)N3CCCC3)c2)c(O)c1`: the AC50 is 3.8 µM.

As for `O=C(N/N=C/c1cc(Cl)ccc1O)c1ccccc1Br`, the AC50 is 8.9 µM.

Take `O=C(N/N=C/c1ccc([N+](=O)[O-])o1)c1cc2ccccc2o1`: the AC50 is 6.22 µM.

With `CC(C)(C)C(=O)NC(=S)NNC(=O)c1ccc(-c2ccccc2)cc1`, the AC50 is 5.71 µM.

Take `CCOc1ccc2nc(NC(=O)c3cccc(-c4cc5ccccc5oc4=O)c3)sc2c1`: the AC50 is 3.31 µM.

As for `O=C1C=C(c2cccs2)C[C@H](c2ccccc2)[C@H]1n1nnc([N+](=O)[O-])n1`, the AC50 is 12.8 µM.

For `Cc1cccc2sc(NNC(=O)c3ccc(S(=O)(=O)N4CC(C)CC(C)C4)cc3)nc12` (stereo not drawn), the AC50 was 6.52 µM.

In the case of `COC(=O)c1sc(-c2ccc(C(C)(C)C)cc2)cc1NC(=O)/C=C/C(=O)O`, the AC50 was 13.8 µM.

For `CCc1cc(CNC(=O)c2ccc3nc(Cc4ccc(OC)c(OC)c4)oc3c2)on1`, the AC50 is 9.39 µM.

With `CCN(CC)c1ccc(CNc2nc3ccccc3n2CCN2CCCCC2)cc1`, the AC50 is 7.26 µM.

For `CCCCC(CC)CN=C(N)NC(N)=NCCCCCCN=C(N)NC(N)=NCC(CC)CCCC` (stereo not drawn), the AC50 is 2.35 µM.

For the compound `Cc1ccc(C2(c3ccc(C)cc3)CC2C(=O)Nc2ccc([N+](=O)[O-])cc2O)cc1` (stereo not drawn), the AC50 is 3.79 µM.

Consider `O=C1C=C(Nc2ccc(F)cc2)c2ccccc2C1=O`, for which the AC50 is 7.19 µM.

As for `CNC(=O)c1sc(N2N=C3/C(=C/c4ccccc4)CCCC3C2c2ccccc2)nc1C` (stereo not drawn), the AC50 is 5.11 µM.

Turning to `Fc1ccc(C[n+]2c(-c3ccccc3)cc(-c3ccccc3)cc2-c2ccccc2)cc1`, the AC50 was 3.99 µM.

In the case of `CN(C)C(=O)c1ccc(NC(=O)c2cccnc2)cc1`, the half-maximal activity concentration (AC50) was 7.27 µM.

Take `c1ccc(-c2csc3ncnc(NCC4COc5ccccc5O4)c23)cc1` (stereo not drawn): the AC50 is 2.79 µM.

The values are drawn from PubChem BioAssay AID463229 (Broad Institute, 2010).
